Read-outs that look alike come from different tables or passages of the source.
How the values were obtained:
[1] = tested on: asynchronous 3D7-A10 parasite cultures; assay: Standard 72-h exposure asexual blood stage susceptibility assay (IC50^72h); assay type: cell-based, Plasmodium falciparum; conditions: Plasmodium falciparum, 3D7, 72 h, read-out: Overall (72hr assay) Mean IC50 (IC50^72h)
[2] = tested on: Plasmodium falciparum 3D7-A10 parasites; assay: Stage specificity assay (8-h exposure of synchronized stages, IC50^8h); assay type: cell-based; conditions: for IC50: Plasmodium falciparum
[3] = tested on: 3D7-MR4 trophozoite parasite-infected RBCs; assay: Metabolomic profiling (hydrophilic metabolite changes, UHPLC-MS); assay type: cell-based, Plasmodium falciparum
[4] = tested on: 3D7-MR4 trophozoite parasite-infected RBCs; conditions: 10 × IC50^72h; ref Allman et al., 2016; cited from earlier work

COCCNCC(O)Cn1c2ccc(Cl)cc2c2cc(Cl)ccc21 (stereo not shown) [MMV019017]
IC50 [1]: 306 nM
Ratio lowest IC50 8hr/IC50 72hr ([2]; 3D7-A10): 4.4
IC50 ([2]; 3D7, 8 h, read-out: IC50^8h values at all tested stages, 8-h exposures, all asexual blood stages): > 1000 nM
IC50 ([2]; 3D7, read-out: Early rings Mean IC50 (IC50^8h), 8-h exposure 0–8 hr, 3D7-A10, survival at 60 h): 8420 nM
IC50 ([2]; 3D7, read-out: Early trophozoites Mean IC50 (IC50^8h), 8-h exposure 16–24 hr, 3D7-A10, survival at 60 h): 1340 nM
IC50 ([2]; 3D7, read-out: Late rings Mean IC50 (IC50^8h), 8-h exposure 8–16 hr, 3D7-A10, survival at 60 h): 8660 nM
IC50 ([2]; 3D7, read-out: Late trophozoites Mean IC50 (IC50^8h), 8-h exposure 24–32 hr, 3D7-A10, survival at 60 h): 1710 nM
IC50 ([2]; 3D7, read-out: Schizonts Mean IC50 (IC50^8h), 8-h exposure 32–40 hr, 3D7-A10, survival at 60 h): 3060 nM
Log2(fold changes) 3-phosphoglycerate ([3]; metabolite 3-phosphoglycerate, log2 fold change): -0.1375
Log2(fold changes) 4-Pyridoxic acid ([3]; metabolite 4-Pyridoxic acid, log2 fold change): 0.0658
Log2(fold changes) 4-aminobutyrate ([3]; metabolite 4-aminobutyrate, log2 fold change): 1.1150
Log2(fold changes) 4-phosphopantetheine ([3]; metabolite 4-phosphopantetheine, log2 fold change): 0.0000
Log2(fold changes) 4-phosphopantothenate ([3]; metabolite 4-phosphopantothenate, log2 fold change): -1.0497
Log2(fold changes) 5-aminopentanoic acid ([3]; metabolite 5-aminopentanoic acid, log2 fold change): 0.0000
Log2(fold changes) 5-methyl-THF ([3]; metabolite 5-methyl-THF, log2 fold change): 0.0000
Log2(fold changes) 5-phosphoribosyl-1-pyrophosphate ([3]; metabolite 5-phosphoribosyl-1-pyrophosphate, log2 fold change): -1.1636
Log2(fold changes) 6-phospho-D-gluconate ([3]; metabolite 6-phospho-D-gluconate, log2 fold change): -0.4356
Log2(fold change) HVDD ([3]; metabolite HVDD): 0.0000
Log2(fold change) Hydroxyisocaproic acid ([3]; metabolite Hydroxyisocaproic acid): 0.0000
Log2(fold change) IDP ([3]; metabolite IDP): 0.0000
Log2(fold change) IMP ([3]; metabolite IMP): 0.0176
Log2(fold change) Inositol ([3]; metabolite Inositol): 0.0000
Log2(fold change) Isopentyl-PP ([3]; metabolite Isopentyl-PP): 0.0000
Log2(fold change) L-arginino-succinate ([3]; metabolite L-arginino-succinate): 0.0000
Log2(fold change) LD ([3]; metabolite LD): -2.3846
Log2(fold change) Myristoyl/tetradecanoyl-CoA ([3]; metabolite Myristoyl/tetradecanoyl-CoA): 0.0000
Log2(fold change) N-Acetyl-L-alanine ([3]; metabolite N-Acetyl-L-alanine): -0.1766
Log2(fold change) N-acetyl-L-ornithine ([3]; metabolite N-acetyl-L-ornithine): -1.7936
Log2(fold change) N-acetyl-glucosamine-1/6-phosphate ([3]; metabolite N-acetyl-glucosamine-1/6-phosphate): -1.5222
Log2(fold change) N-acetyl-glutamate ([3]; metabolite N-acetyl-glutamate): 0.3951
Log2(fold change) N-acetyl-glutamine ([3]; metabolite N-acetyl-glutamine): 0.6689
Log2(fold change) N-carbamoyl-L-aspartate ([3]; metabolite N-carbamoyl-L-aspartate): -1.9472
Log2(fold change) NAD+ ([3]; metabolite NAD+): -0.1399
Log2(fold change) NADH ([3]; metabolite NADH): 0.8540
Log2(fold change) NADP+ ([3]; metabolite NADP+): 0.2168
Log2(fold change) NADPH ([3]; metabolite NADPH): 0.4083
Log2(fold change) O-acetyl-L-serine ([3]; metabolite O-acetyl-L-serine): 0.0000
Log2(fold change) Octoluse 8/1P ([3]; metabolite Octoluse 8/1P): -0.2135
Log2(fold change) Octoluse Bisphosphate ([3]; metabolite Octoluse Bisphosphate): -5.4193
Log2(fold change) PD ([3]; metabolite PD): -1.1341
Log2(fold change) PE ([3]; metabolite PE): 0.0923
Log2(fold change) PEE ([3]; metabolite PEE): 0.2942
Log2(fold change) PEEK ([3]; metabolite PEEK): -0.4238
Log2(fold change) PVNF ([3]; metabolite PVNF): -4.6843
Log2(fold change) Pyroglutamic acid ([3]; metabolite Pyroglutamic acid): 0.4950
Log2(fold change) Pyrophosphate ([3]; metabolite Pyrophosphate): -2.5918
Log2(fold change) Ribose-5-phosphate ([3]; metabolite Ribose-5-phosphate): 0.0000
Log2(fold change) S-adenosyl-L-homocysteine ([3]; metabolite S-adenosyl-L-homocysteine): -0.4383
Log2(fold change) S-adenosyl-L-methioninamine ([3]; metabolite S-adenosyl-L-methioninamine): 0.0000
Log2(fold change) S-adenosyl-L-methionine ([3]; metabolite S-adenosyl-L-methionine): 0.0000
Log2(fold change) S-methyl-5'-thioadenosine ([3]; metabolite S-methyl-5'-thioadenosine): 0.0000
Log2(fold change) SD ([3]; metabolite SD): -1.6540
Log2(fold change) SDL ([3]; metabolite SDL): 0.0000
Log2(fold change) SID ([3]; metabolite SID): 0.0000
Log2(fold change) Sedoheptulose bisphosphate ([3]; metabolite Sedoheptulose bisphosphate): -1.7256
Log2(fold change) Thiamine pyrophosphate ([3]; metabolite Thiamine pyrophosphate): 0.0000
Log2(fold changes) UDP-D-glucose ([3]; metabolite UDP-D-glucose, log2 fold change): 0.0449
Log2(fold changes) UDP-D-glucuronate ([3]; metabolite UDP-D-glucuronate, log2 fold change): -0.4277
Log2(fold changes) UDP-N-acetyl-glucosamine ([3]; metabolite UDP-N-acetyl-glucosamine, log2 fold change): -0.2402
Log2(fold changes) UDP ([3]; metabolite UDP, log2 fold change): -1.4536
Log2(fold changes) UMP ([3]; metabolite UMP, log2 fold change): -0.1145
Log2(fold changes) UTP ([3]; metabolite UTP, log2 fold change): -1.8511
Log2(fold change) hydroxyphenylpyruvate ([3]; metabolite hydroxyphenylpyruvate): 0.0000
Log2(fold change) hydroxyproline/Aminolevulinate ([3]; metabolite hydroxyproline/Aminolevulinate): 0.0000
Log2(fold change) hypoxanthine ([3]; metabolite hypoxanthine): 1.0399
Log2(fold change) indole ([3]; metabolite indole): 0.2468
Log2(fold change) inosine ([3]; metabolite inosine): 0.3793
Log2(fold change) isoleucine ([3]; metabolite isoleucine): 0.0000
Log2(fold change) lactate ([3]; metabolite lactate): -0.6725
Log2(fold change) leucine ([3]; metabolite leucine): 0.0000
Log2(fold change) lysine ([3]; metabolite lysine): 0.0000
Log2(fold change) malate ([3]; metabolite malate): 0.0811
Log2(fold change) maleic acid ([3]; metabolite maleic acid): 0.0000
Log2(fold change) methionine ([3]; metabolite methionine): 0.0000
Log2(fold change) myo-inositol ([3]; metabolite myo-inositol): -2.8253
Log2(fold change) nicotinamide mononucleotide ([3]; metabolite nicotinamide mononucleotide): 0.0000
Log2(fold change) nicotinate ([3]; metabolite nicotinate): 1.9078
Log2(fold change) ornithine ([3]; metabolite ornithine): 0.0801
Log2(fold change) orotate ([3]; metabolite orotate): 1.9702
Log2(fold change) orotidine-5'-phosphate ([3]; metabolite orotidine-5'-phosphate): 0.0000
Log2(fold change) oxaloacetate ([3]; metabolite oxaloacetate): 0.0000
Log2(fold change) p-aminobenzoate ([3]; metabolite p-aminobenzoate): 0.0000
Log2(fold change) p-hydroxybenzoate ([3]; metabolite p-hydroxybenzoate): 0.7031
Log2(fold change) pantothenate ([3]; metabolite pantothenate): 0.0000
Log2(fold change) phenylalanine ([3]; metabolite phenylalanine): 0.0000
Log2(fold change) phenylpyruvate ([3]; metabolite phenylpyruvate): 1.2139
Log2(fold change) phosphoenolpyruvate ([3]; metabolite phosphoenolpyruvate): 0.7560
Log2(fold change) prephenate ([3]; metabolite prephenate): 0.0000
Log2(fold change) proline ([3]; metabolite proline): 0.0000
Log2(fold change) pyridoxine ([3]; metabolite pyridoxine): 0.0000
Log2(fold change) pyruvate ([3]; metabolite pyruvate): -0.9980
Log2(fold change) riboflavin ([3]; metabolite riboflavin): 0.0000
Log2(fold change) ribose ([3]; metabolite ribose): 0.0000
Log2(fold change) ribose-phosphate ([3]; metabolite ribose-phosphate): -0.9470
Log2(fold change) ribulose-5-phosphate ([3]; metabolite ribulose-5-phosphate): 0.0000
Log2(fold change) serine ([3]; metabolite serine): 0.0000
Log2(fold change) sn-glycerol-3-phosphate ([3]; metabolite sn-glycerol-3-phosphate): 0.0194
Log2(fold change) succinate/Methylmalonic acid ([3]; metabolite succinate/Methylmalonic acid): 0.4365
Log2(fold change) succinyl-CoA/methylmalonyl-CoA ([3]; metabolite succinyl-CoA/methylmalonyl-CoA): 0.0000
Log2(fold change) taurine ([3]; metabolite taurine): 0.0000
Log2(fold change) thiamine ([3]; metabolite thiamine): 0.0000
Log2(fold change) threonine/homoserine ([3]; metabolite threonine/homoserine): 0.0000
Log2(fold change) thymidine ([3]; metabolite thymidine): -1.7681
Log2(fold changes) thymine ([3]; metabolite thymine, log2 fold change): -1.7003
Log2(fold changes) trehalose-6-Phosphate ([3]; metabolite trehalose-6-Phosphate, log2 fold change): 0.0000
Log2(fold changes) tryptophan ([3]; metabolite tryptophan, log2 fold change): 0.0000
Log2(fold changes) tyrosine ([3]; metabolite tyrosine, log2 fold change): 0.0000
Log2(fold changes) uridine ([3]; metabolite uridine, log2 fold change): -0.5758
levels of cAMP [4]: decreased
levels of the deoxyribonucleotides dAMP and dTMP [4]: increased
nucleoside di- and tri-phosphate levels (GDP, UDP, GTP, dATP, dGTP/ATP, dUTP) [4]: decreased
peptide levels (hemoglobin catabolism signature) [4]: decreased peptide levels

Reference: article PMC7031696 (Cell chemical biology, 2019)
